Data reported in patent US11033569B2, “Compounds,Compositions, and methods for the treatment of disease” (Sperovie Biosciences, Inc., priority 2016, dated 2021).
pEC50: −log10 of the molar value. Entries after “also recorded” stand apart in the source; their conditions may differ.

How the values were obtained:
ISG54 ISRE-luc reporter = ISG54 ISRE-luc reporter activation in HEK293 (SZ14) cells, screen for STING agonists; assay type: cell-based; settings: digitonin buffer, 5 hours, read-out: IRF EC50
Protocol: (§1) ISG54 or NF-κβ activity was determined using the Steady-glo buffer system (Promega), and are expressed as EC50 values summarized in Table 3 below. […] This calculation is applicable for compounds with enzyme inhibition activity, as the baseline for an untreated sample may be set at 100% enzymatic activity, and therefore % inhibition is evaluated based on this 100% maximal basis. For these studies, the EC50 value relates to the concentration required to achieve a value 50% activity level above the untreated sample set at 0%.
(§2) Data are shown as fold induction over cells that received DMSO (compound carrier) alone as the mean, +/−standard deviation of duplicate wells per stimulant.

NF-κβ-luc reporter = NF-κβ-luc reporter activation in HEK293 (SZ14) cells, screen for STING agonists; assay type: cell-based; settings: digitonin buffer, 5 hours, read-out: NF-KB EC50
Protocol: as §1, §2

[1] = Oral maximum tolerated dose study in BALB/c mice; assay type: in vivo
Protocol: In order to investigate the maximum tolerated dosage of orally administered compounds, 15 female BALB/c mice between 7-10 weeks old were split into three treatment groups. Each group was administered either Cmd 1 or vehicle orally, according to the schedule outlined in Table 5 below. Cmd 1 was provided at 10 mL/kg (0.200 mL/20 g mouse).

[2] = tested on: 4T1.luc2 orthotopic murine breast carcinoma; assay: 4T1.luc2 orthotopic murine breast carcinoma model; assay type: in vivo, mice
Protocol: The efficacy of intraperitoneal administration of Cmd 1 was investigated in the 4T1.luc2 orthotopic murine breast carcinoma model. Thirty female BALB/c mice between 7-10 weeks old were randomized into four treatment groups based on Day 1 body weight, and the treatment was carried out according to the regimen outlined in Table 4 below. Cmd 1 was dissolved in saline and administered at 10 mL/kg (0.200 mL/20 g mouse), with a cell injection volume of 0.05 mL/mouse.
Each animal was monitored individually. The endpoint of the experiment was a tumor volume of […] or 45 days. Animals in Groups 1 and 2 were subjected to whole body bioluminescent imaging starting on Day 5 and once a week thereafter (Days 12, 19, 26, 33, and 41). At the endpoint, blood and tissue (lung, lymph nodes, spleen, and tumor) was analyzed for presence of metastases and biomarker (CD45, CD3, CD4, CD8, CD11b, CD25, Ly-6G, Ly-6C, FoxP3) levels.

[3] = tested on: CD8+ T cells, CD4+ T cells, and MDSCs; assay: Flow cytometry of immune cells in spleen, lymph nodes and blood; assay type: in vivo; settings: lymph nodes and blood on day 19, compared with vehicle
A20 lymphoma = assay: Syngeneic A20 lymphoma mouse model; assay type: in vivo; settings: for tumor growth upon re-challenge with tumor cells: compared with control
CT26 colon cancer = assay: Syngeneic CT26 colon cancer mouse model; assay type: in vivo
THP1 cells and PBMCs = assay: Gene expression of ISGs and PRRs in THP1 and PBMCs (real time PCR); assay type: cell-based; settings: 5 uM, Lipofectamine LTX, 20 h
Protocol: (§3) After incubation for 20 h, RNA was extracted and gene expression of different Interferon Stimulated Genes (ISGs) and various Pattern Recognition Receptors (PRRs) was evaluated by real time PCR. Fold Induction was calculated by ΔΔct method.
as §3

Tumor cells = assay: Tumor cell growth inhibition (DAPI imaging, ImageXpress); assay type: cell-based; settings: once daily for 3 days, no lipofectamine
Protocol: Tumor cells in 96-well plate were treated once daily with Cmd 1 (no lipofectamine) or recombinant IFN (U-IFN) for 3 days. Cells were fixed with 1% paraformaldehyde and stained with DAPI. Cells were automatically imaged on ImageXpress and total number of survival cells were analyzed using MetaXpress software. Results are shown as total number of cells per group or % reduction calculated by normalizing to DMSO treated cells.

STING [4] = molecular target: T1, STING (Homo sapiens, UniProt Q86WV6); assay: STING binding / type I IFN signaling (ISRE-luciferase); assay type: cell-based; settings: similar to 2′,3′-cGAMP
T1 construct: host or cells: SZ14 HEK293 cells stably expressing ISG54 ISRE-luc reporter
T1 sequence (Q86WV6 whole entry): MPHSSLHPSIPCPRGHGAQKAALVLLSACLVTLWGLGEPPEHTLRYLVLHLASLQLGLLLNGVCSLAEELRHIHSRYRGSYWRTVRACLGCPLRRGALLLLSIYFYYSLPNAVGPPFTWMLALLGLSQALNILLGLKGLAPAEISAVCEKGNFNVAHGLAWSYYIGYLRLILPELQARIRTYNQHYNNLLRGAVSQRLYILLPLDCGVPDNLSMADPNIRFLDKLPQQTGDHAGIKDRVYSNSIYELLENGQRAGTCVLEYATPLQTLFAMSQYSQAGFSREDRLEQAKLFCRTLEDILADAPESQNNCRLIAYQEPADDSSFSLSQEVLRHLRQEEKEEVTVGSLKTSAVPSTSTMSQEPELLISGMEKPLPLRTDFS
Protocol: SZ14 HEK293 cells stably expressing the ISG54 ISRE-luc reporter gene were treated with compound exemplary compounds Cmd 1, 2′ 3-cGAMP (natural STING ligand), or DMSO in the presence of digitonin for 5-6 hrs. ISRE-luciferase activity was determined and normalized to DMSO treated cells (mean±standard deviation of triplicate wells per stimulant).

human monocytes = assay: Activity in human monocytes; assay type: cell-based; settings: human monocytes (FIG. 36A)
[5] = molecular target: STING-HAQ polymorphic variant (Homo sapiens, UniProt Q86WV6, G230A/H232R/R293Q/R71H); assay: Activation of STING-HAQ polymorphic variant; assay type: cell-based; settings: major STING-HAQ polymorphic variant in humans
Sequence of STING-HAQ polymorphic variant (Q86WV6 whole entry R71H/G230A/H232R/R293Q): as the sequence (Q86WV6 whole entry) above, with R71H, G230A, H232R, R293Q counted along it

[6] = tested on: STING-R238A and STING-Y167A; assay: STING loss-of-function mutants, STING-dependent IFN response; assay type: cell-based
[7] = tested on: mouse lymphoma cell line A20; assay: Apoptosis in mouse lymphoma cell line A20; assay type: cell-based; settings: A20 cells
mouse melanoma cells = assay: Apoptosis of mouse melanoma cells; assay type: cell-based
STING [8] = molecular target: T1, STING; assay: STING dependence of cell death; assay type: cell-based
STING [9] = molecular target: T1, STING; assay: Gel shift assay; assay type: binding; settings: gel shift with fluorescent close structural analog of Cmd 1
[10] = tested on: IRF-type I and type III IFN response; assay: IRF-type I and type III IFN response; assay type: cell-based
[11] = tested on: human natural killer (NK) cells; assay: Human natural killer (NK) cell activation; assay type: cell-based
[12] = tested on: panel of normal cell lines; assay: Cytotoxicity in a panel of normal cell lines; assay type: cell-based
[13] = 60 mg/kg po bid x 10 (first day 1 dose), n=5
[14] = oral, once daily or twice daily up to 60 mgkg/day

Structure (SMILES): CCCCCCCCCCOc1ccc(C(=O)Oc2ccc(CSP3(=O)OC[C@H]4O[C@@H](n5cnc6c(N)ncnc65)[C@H](F)[C@@H]4OP(=O)(O)OC[C@H]4O[C@@H](n5ccc(=O)[nH]c5=O)[C@H](F)[C@@H]4O3)cc2)cc1.N (stereo partly drawn) [Cmd 1]
- pEC50 (ISG54 ISRE-luc reporter): > 7.30
- pEC50 (NF-κβ-luc reporter): 6.30 to 7.30
- NTR [1, 13]: 0
- NTRm [1, 13]: 0
- TR [1, 13]: 0
- BW Nadir ([1]; 60 mg/kg po bid x 10 (first day 1 dose), nadir day (11)): −3.6%
- NTR ([1]; 60 mg/kg po qd x 10, n=5): 0
- NTRm ([1]; 60 mg/kg po qd x 10, n=5): 0
- TR ([1]; 60 mg/kg po qd x 10, n=5): 0
- adverse clinical signs [1, 14]: no adverse clinical signs
- tolerability [1, 14]: well tolerated
- tumor growth / tumor volume ([2]; 10 mg/kg ip days 5, 7, 9, 11, 14, 18, compared with control): significant decline in tumor volume; also recorded: significant decrease in tumor growth
- tumor growth ([2]; 4T1 breast cancer model, compared with vehicle (FIG. 75)): considerable tumor growth inhibition
- tumor growth (luminescence images) ([2]; intraperitoneal administration, compared with vehicle (FIG. 82)): considerable tumor growth inhibition
- induction of CD8+ T cells, CD4+ T cells, and MDSCs [3]: increase in CD8+ T cells, CD4+ T cells, and MDSCs
- survival rate (A20 lymphoma; combination therapy with cyclophosphamide): significantly improve the survival rate
- tumor-free survival (A20 lymphoma; in combination with cyclophosphamide): results in tumor-free survival
- survival rate (A20 lymphoma; monotherapy): significantly improve the survival rate
- tumor growth (A20 lymphoma; monotherapy, compared with vehicle): potently inhibits lymphoma tumor growth; also recorded: considerable tumor growth inhibition; also recorded: inhibit mouse A20 B cell lymphoma tumor cells
- migration of CD8 T cells into the tumor site (immunohistochemistry) (A20 lymphoma; tumor tissue, vs vehicle): induces migration of CD8 T into the tumor site
- migration of NK cells into the tumor site (anti-granzyme B immunohistochemistry) (A20 lymphoma; tumor tissue, vs vehicle): induces migration of NK cells into the tumor site
- migration of macrophages into the tumor site (anti-F4/80 immunohistochemistry) (A20 lymphoma; tumor tissue, vs vehicle): induces migration of macrophages into the tumor site
- tumor growth upon re-challenge with tumor cells (A20 lymphoma; tumor-free mice after Cmd 1 + cyclophosphamide treatment): no tumor growth
- tumor growth upon re-challenge with tumor cells (A20 lymphoma; tumor-free mice after Cmd 1 treatment): no tumor growth
- abscopal antitumoral activity, tumor volume left and right flank (CT26 colon cancer; administered intratumorally, 13 days post initiation treatment, vs vehicle): considerable tumor growth inhibition
- survival rate (CT26 colon cancer; combination therapy with an anti-CTLA4 antibody): significantly improve the survival rate
- tumor growth (CT26 colon cancer; doses 10 μg, 30 μg, and 100 μg, vs vehicle): considerable tumor growth inhibition at all three doses
- tumor growth (CT26 colon cancer; intratumoral administration, vs vehicle (FIG. 79)): considerable tumor growth inhibition
- tumor growth (CT26 colon cancer; intratumoral administration, vs vehicle, vehicle and Ethanol (FIG. 80)): considerable tumor growth inhibition
- survival rate (CT26 colon cancer; monotherapy): significantly improve the survival rate
- tumor growth (CT26 colon cancer; syngeneic CT26 colon cancer model (FIG. 62)): highly effective in inhibiting tumor growth
- induction of ISG and PRR-associated genes, THP1 compared to PBMCs (THP1 cells and PBMCs): selective and enhanced induction of ISG and PRR-associated genes
- tumor cell growth (Tumor cells): Inhibits Tumor Cell Growth
- STING binding and type 1 IFN signaling (STING [4]): binds to STING to activate type 1 IFN signaling
- activity relative to natural STING ligand 3′,3′-cGAMP (human monocytes): more active
- activation of STING-HAQ variant [5]: capable of activating
- dependence of STING activation on residues R238 and Y167 [6]: critical
- apoptosis [7]: induces apoptosis
- apoptosis (mouse melanoma cells): causes apoptosis
- STING dependence of induction of cell death (STING [8]): STING-mediated
- binding to STING (STING [9]): binds to STING
- IRF-type I and type III IFN response [10]: strongly activates
- NK cell activation [11]: activates human natural killer (NK) cells
- IFN-γ production ([11]; human NK cells): induces IFN-γ production
- cytotoxicity [12]: non-cytotoxic
